Measurements reported in patent US20090123420A1, “Regulation of T Cell-Mediated Immunity by D Isomers of Inhibitors of Indoleamine-2,3-Dioxygenase” (Medical College of Georgia Research Institute, Inc, priority 2003, published 2009).
“Also recorded” adds a separate entry of the source. Blank lines part the entries; values can stand above or below the molecule they belong to. No end group written: not given here.

Legend:
B16F10 melanomas = experiment: Established B16F10 melanoma model, 1MT with radiation or cyclophosphamide; assay type: in vivo, mouse; details: for effect on tumor growth, 1MT alone: established tumor, treatment from day 7, SQ pellets
Protocol: FIGS. 11A-11D. Administration of 1-MT enhances immune-mediated host anti-tumor effect when administered with radiation or cyclophosphamide. Mice were injected subcutaneously (SQ) with 4×10^4 B16F10 cells. […] Control mice received vehicle pellets without drug.
Mouse tumor models. C57BL/6 mice (Jackson, Bar Harbor, Me.) were implanted with tumors in the anteriomedial thigh, using either 4×10^4 B16F10 (ATCC, Bethesda, Md.) or 1×10^6 B78H1•GM-CSF. B78H1•GM-CSF cells recruit large numbers of APCs (Dranoff et al., Proc. Natl. Acad. Sci. USA, 1993; 90:3539) and were originally designed as a vaccine strategy. GMCSF-transfected tumors are immunogenic if lethally irradiated prior to injection (Borrello et al., Hum. Gene Ther., 1999; 10:1983), but live tumors grow progressively and create systemic tolerance to tumor antigens (Bronte et al., J. Immunol., 1999; 162:5728). Thus, B78H1•GM-CSF represented an excellent model for our studies, since it recruited many DCs but nevertheless […]. Tumors were 10-12 days after implantation, well prior to the stage of large, metastatic tumors (day 21) in which the hosts began to show alteration in spleen and non-tumor-draining LNs.
Not unexpected, given that the tumor had already been allowed to create tolerance in the host.

[1] = Comparative plasma pharmacokinetics of the stereo-isomers of 1-MT; assay type: in vivo, mouse
Protocol: Studies were conducted in conventional mice after IV, PO and SC doses of 50 mg/kg, and IP doses of 25 mg/kg, 50 mg/kg, and 100 mg/kg.

[2] = Pilot tissue biodistribution of D and L isomers after DL racemic mixture; assay type: in vivo, mouse; details: DL racemic mixture 10 mg/day SQ pellets, 72 hour infusion
Description: The results noted with spleen are particularly relevant because it is a lymphoid organ, and thus likely to be similar to tumor-draining lymph nodes.

[3] = system: Lewis Lung carcinoma (LLC); details: mouse, in vivo; cited from earlier work
IDO [4] = experiment: Recall MLR of primed recipient LN cells with 1MT added to the MLR; assay type: cell-based, mouse; details: responders from recipients of TDLN DCs
P815 with IDO = details: concomitant administration; cited from earlier work
IDO [5] = target: IDO (Homo sapiens, UniProt P14902); experiment: Allogeneic mixed-leukocyte reaction (MLR) with IDO-expressing human monocyte-derived DCs, T cell proliferation by thymidine incorporation; details: 250 uM in culture medium
Chain of IDO (Homo sapiens, UniProt P14902) (P14902 whole entry): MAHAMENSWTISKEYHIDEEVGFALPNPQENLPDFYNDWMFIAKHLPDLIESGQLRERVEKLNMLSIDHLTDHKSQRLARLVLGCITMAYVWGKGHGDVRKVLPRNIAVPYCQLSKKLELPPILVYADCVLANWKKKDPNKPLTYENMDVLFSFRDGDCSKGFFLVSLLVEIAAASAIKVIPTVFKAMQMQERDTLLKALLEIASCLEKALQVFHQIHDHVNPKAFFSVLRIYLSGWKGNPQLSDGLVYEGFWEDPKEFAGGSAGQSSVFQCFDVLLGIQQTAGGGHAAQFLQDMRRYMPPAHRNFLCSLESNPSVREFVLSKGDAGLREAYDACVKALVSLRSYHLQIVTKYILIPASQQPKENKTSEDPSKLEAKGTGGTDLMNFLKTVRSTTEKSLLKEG
Protocol: Replicate MLRs received each compound at the concentrations shown. Bars represent T cell proliferation at the end of the 5-day activation period.
After 5 days, proliferation was measured by 4 hour thymidine incorporation assay. “V”-bottom culture wells (Nunc) were used in MLR assays to maximize cell-cell contact.
DCs were used as stimulators in allogeneic mixed-leukocyte reactions (MLRs), with allogeneic lymphocytes as responder cells.

IDO [6] = target: IDO (Mus musculus, UniProt P28776); experiment: MLR with sorted tumor-draining lymph node (TDLN) cells as stimulators and BM3 responder T cells; details: 10x
Chain of IDO (Mus musculus, UniProt P28776) (P28776 whole entry): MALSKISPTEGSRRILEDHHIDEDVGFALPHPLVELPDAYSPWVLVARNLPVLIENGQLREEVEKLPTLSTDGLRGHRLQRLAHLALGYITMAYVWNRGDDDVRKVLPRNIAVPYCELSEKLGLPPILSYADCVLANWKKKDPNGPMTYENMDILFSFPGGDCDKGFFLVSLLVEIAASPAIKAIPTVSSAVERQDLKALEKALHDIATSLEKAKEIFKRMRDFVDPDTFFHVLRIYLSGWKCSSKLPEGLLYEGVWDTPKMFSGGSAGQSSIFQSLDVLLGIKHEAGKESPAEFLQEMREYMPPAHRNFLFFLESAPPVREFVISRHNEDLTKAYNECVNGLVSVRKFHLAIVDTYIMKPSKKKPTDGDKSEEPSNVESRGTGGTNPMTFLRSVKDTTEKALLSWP
Protocol: T cell activation in MLR. BM3 responder T cells were prepared from spleen by nylon-wool enrichment. Stimulators (sorted DCs or unfractionated TDLN) were mixed with 1×10^5 BM3 responder cells in 200 ul IMDM at the ratios shown in each figure. After 3 days, proliferation was measured by 4-hour thymidine incorporation assay.
MLRs were thus “two-way” reactions. However, the small number of sorted DCs used as stimulators contributed negligible proliferation compared to the large population of TCR-transgenic responder cells. Since the relevant readout was dominant suppression, the two-way MLR design presented no problem in interpretation.
Pooled draining LN cells (4 nodes) were stained and fractionated by 4-color MoFlo cell sorting for the two populations shown in the schematic of FIG. 5B. All other cells were collected in a third fraction. Each fraction was then used as stimulators in MLRs, using 50,000 BM3 T cells as responders. The number of stimulators used in each MLR was adjusted to be the same as would have been present in 50,000 cells of the original LN preparation, based on the measured percentage of each sorted fraction. Thus, 500 cells of the sorted B220^+ CD11c^+ fraction were added per well, and 1500 cells of the CD25^+ CD4^+ fraction, while 48,000 cells of the “all other” fraction were used.

[7] = target: rabbit polyclonal anti-human IDO antibody (raised against the KLH-conjugated peptide of SEQ ID NO:1, affinity purified); experiment: flow cytometry of IFNγ-activated monocyte-derived macrophages; anti-IDO antibody pre-adsorbed with the immunizing peptide, which competes with IDO

Molecule: Cn1cc(CC(N)C(=O)O)c2ccccc21 (racemic) [DL racemic form of 1MT, reference compound]
tumor growth, 1MT with cyclophosphamide (B16F10 melanomas; 20 mg per mouse per day DL racemic, cyclophosphamide 150 mg/kg x 1 dose): significantly reduce tumor growth | tumor growth, 1MT with radiation (B16F10 melanomas; 20 mg per mouse per day DL racemic, total-body radiation 500 cGy single dose): significantly reduce tumor growth | effect on tumor growth, 1MT alone (B16F10 melanomas): no effect

apparent volume of distribution ([1]; D versus L isomer): relatively greater | bioavailability ([1]; mouse, plasma, po, 50 mg/kg): 64% | distribution into muscle and spleen, D versus L isomer [2]: equivalent distribution | levels in plasma and in brain, D versus L isomer [2]: lower levels
Molecule: Cn1cc(C[C@@H](N)C(=O)O)c2ccccc21 [1-methyl-D-tryptophan]
accumulation in liver, D versus L isomer [2]: at least equal, and possibly preferential, accumulation | anti-tumor effect of combination with radiation (B16F10 melanomas; replicate radiation studies): enhanced effect over radiation alone

Molecule: Cn1cc(C[C@H](N)C(=O)O)c2ccccc21 [1MT, 1-methyl-tryptophan]
tumor outgrowth [3]: significantly delayed tumor outgrowth | suppression in recall MLRs (IDO [4]): no effect; also recorded: not restored | IDO-mediated prevention of tumor rejection by pre-immunized hosts (P815 with IDO): substantially reversed | effect of 1MT over cyclophosphamide alone in immunodeficient hosts (B16F10 melanomas; RAG1-knockout hosts): no enhancing effect | effect on tumor growth, 1MT alone (B16F10 melanomas): no effect

oral bioavailability ([1]; PO): 105%
Molecule: Cn1cc(C[C@H](N)C(=O)O)c2ccccc21 [L 1-MT, reference compound]

DC-mediated inhibition of T cell proliferation with supra-physiologic tryptophan (IDO [5]): completely reversed | effect of excess L-tryptophan with IDO-knockout pDCs (IDO [6]; TDLN cells from IDO-knockout mice): no effect
Molecule: N[C@@H](Cc1c[nH]c2ccccc12)C(=O)O [L-tryptophan]
suppression by pDCs with excess L-tryptophan (IDO [6]; 250 uM, IDO-sufficient host): abrogated; also recorded: abrogates suppression

reduction of flow cytometry signal [7]: > 95%
Molecule: LIESGQLRERVEKLNMLC (also: conjugated to keyhole limpet carrier protein for immunisation) [immunizing peptide … (SEQ ID NO:1), based on human IDO]
